Source: patent EP0480690A1, “Aqueous ophthalmic microemulsions of tepoxalin” (CIBA-GEIGY AG, priority 1990, dated 1992)

Columns and labels:
[1] = Accelerated degradation of tepoxalin (16 hours at 100°C, HPLC); type: physicochemical
Description: The results of the first stability study prompted an investigation for a way to reformulate. Tepoxalin appears to hydrolyze at the amide group to form a carboxylic acid. An accelerated procedure has been developed to observe this degradation within 16 hours. The sample is analyzed by reversed-phase HPLC using a diode array for detection. […] With disodium Edetate in the microemulsion, the drug degraded at and above pH 7.0; degradation was minimal at pH's 5.0, 5.5 and 6.0. Thus, a second stability study was begun with 0.03% disodium Edetate in the formulation and the pH adjusted to 5.9 - 6.1 with a citric acid/sodium phosphate dibasic buffer.
A number of experiments were performed in succession in order to elucidate a mechanism for the degradation of tepoxalin in water and in the microemulsion and to determine optimum conditions for the tepoxalin microemulsion. The drug is suspected of vulnerability to acid and base catalysis of its […] amide group forming a carboxylic acid. The experiments and results: • (a) 0.1% tepoxalin was dissolved in 50:50 water: ethanol and aliquots were pH adjusted with 1M NaOH to 5.0, 6.0, 7.0, 8.0 and 12.6. The aliquots were heated in capped reaction vials for 16 hours at 100°C.
Two drops of 1M citric acid solution were added to an aliquot (1 ml) and the pH was adjusted with 1.0 M sodium phosphate dibasic to pH 5.0, 6.0, 7.0, and 7.6. The samples were heated as before.
The chromatograms show two major degradation products: one eluting before tepoxalin and another after.
The optimum pH appears between pH 6.2 and 6.4, but there is still significant degradation. • (d) The previous experiment (c) was repeated with disodium Edetate 0.03% in each sample and with the same pH range.
The presence of the second degradate that elutes before tepoxalin is also minimal. • (e) Experiment (d) was repeated with a broader pH range: 5.0, 5.5, 6.0, and 7.0.

[2] = test system: rabbit cornea; assay: In vitro corneal penetration in modified Ussing chambers; type: in vitro ADME; conditions: 0.1% suspension and 0.1% microemulsion, 0 to 240 minutes
Description: Modified Ussing type chambers (H.F. Edelhauser, J.R. Hoffert, P.O. Fromm, Invest. Ophthalmol. Vis. Sci., 4:290-296 (1965)) designed with 2.5 ml donor and 2.5 ml receiver cells (separated by the cornea which is mounted between two sealing rings) are used for the studies to determine penetration of the cornea by the microemulsions of the invention. The system is 2-chambered (in vitro cells) (see Figure 1) and is designed to monitor the penetration of drug entities across biological membranes. Usually the cells are temperature controlled by means of an exterior water jacket; the stirring of the dosing and receiving solutions in the cells is achieved by bubbling a gas through the cells. In the case of the cornea, the gas is a mixture of 5% CO₂ balanced with oxygen, to maintain physiological Ph.
The eyes were enucleated with the conjunctival sac and lids attached. The cornea was excised and mounted using the Dikstein and Maurice Technique (S. Dikstein and D.M. Maurice, J. Physiol., 221: 29-41 (1972)). […]
100 µl Aliquots were sampled from the receiver side over a 4-hour period (0, 15, 30, 45, 60, 90, 120, 180 and 240 minutes). […] The mounted corneas were removed from the cells and the percentage hydration calculated by weighing the isolated tissue before and after drying (the corneas were placed in an oven overnight at 45°C). […] Untreated corneas were assessed as controls. […]

[3] = Solubility studies on tepoxalin in various vehicles; type: physicochemical
Description: The low aqueous solubility of tepoxalin prompted solubility experiments with oils, surfactants, hydroxypropyl-beta-cyclodextrin, and combinations thereof. These experiments are summarized above in Table 1. A tepoxalin content of greater than 0.1% could be attained with a microemulsion using 1% castor oil and 2% of a Tween (polysorbate). […] The sequence of adding, mixing, and sonicating the drug and excipients is important in attaining a concentration greater than 0.1%.
Thus, 0.134% of the 0.15% drug in the emulsion resides in the interface.

COc1ccc(-n2nc(CCC(=O)N(C)O)cc2-c2ccc(Cl)cc2)cc1 [Tepoxalin, 3-[5-(4-chlorophenyl)-1-(4-methoxyphenyl)-3-pyrazolyl]-N-hydroxy-N-methylpropanamide]
degradation of tepoxalin ([1]; 0.1% microemulsion (castor oil, Tween 60, citrate/phosphate buffer), pH 5.0, 6.0, 7.0, 7.6, no Edetate, 16 hours at 100°C): The degradation occurs greatest at pH 5.0 and 7.6 | degradation of tepoxalin ([1]; 0.1% tepoxalin in 50:50 water:ethanol, pH 5.0, 6.0, 7.0, 8.0, 12.6, 16 hours at 100°C): a degradation peak eluting after tepoxalin in samples at pH 6, 7, 8, 12.6 but not at pH 5.0 | pH of optimum stability ([1]; microemulsion with disodium Edetate 0.03%, from tepoxalin peak areas and heights): optimum stability between 5.5 and 6.0 | degradation of tepoxalin ([1]; microemulsion with disodium Edetate 0.03%, pH 5.0, 5.5, 6.0 and 7.0): Degradation was minimal at pH 5.0, 5.5, and 6.0 | degradation of tepoxalin ([1]; microemulsion with disodium Edetate 0.03%, pH 6.0 to 7.0): Degradation is minimal at pH 6.0 and increases with pH to 7.0 | pH of minimum degradation ([1]; microemulsion without Edetate, pH range 5 to 7.6): 6.2 - 6.4 | penetration of tepoxalin across the cornea [2]: penetrating the cornea from both formulations | Tepoxalin Solubility ([3]; Matrix: Water, Neat): 0.00044% | Tepoxalin Solubility ([3]; Oil, Surfactant Microemulsion: castor oil 1%, Tween 60 2%): 0.15% | Tepoxalin Solubility ([3]; Oil, Surfactant Microemulsion: castor oil 1%, Tween 80 2% (tepoxalin is added after microemulsion)): 0.085% | Tepoxalin Solubility ([3]; Oil, Surfactant Microemulsion: castor oil 1%, Tween 80 2% (tepoxalin is added before emulsion is prepared)): 0.147% | Tepoxalin Solubility ([3]; Oil, Surfactant Microemulsion: castor oil 2%, Tween 80 2%): 0.106% | Tepoxalin Solubility ([3]; Oil, Surfactant Microemulsion: castor oil 3%, Pluronic P-105 7%): 0.108% | Tepoxalin Solubility ([3]; Oils: Cottonseed, Neat): 0.06% | Tepoxalin Solubility ([3]; Oils: castor, Neat): 1.6% | Tepoxalin Solubility ([3]; Oils: mineral, Neat): 0.0% | Tepoxalin Solubility ([3]; Oils: perfluoro-decalin, Neat): 0.0% | Tepoxalin Solubility ([3]; Oils: sesame, Neat): 0.4% | Tepoxalin Solubility ([3]; Oils: sunflower Seed, Neat): 0.4% | Tepoxalin Solubility ([3]; Surfactant and HP-β-CD Solution: HP-β-CD 5%, Tween 80 2%): 0.097% | Tepoxalin Solubility ([3]; Surfactant and HP-β-CD Solution: HP-β-CD 10%, Tween 80 1%): 0.113% | Tepoxalin Solubility ([3]; Surfactants: Pluronic F-127, aqueous 6%): 0.035% | Tepoxalin Solubility ([3]; Surfactants: Pluronic P-105, aqueous 6% w/w): 0.099% | Tepoxalin Solubility ([3]; Surfactants: Tween 20, aqueous 2%): 0.053% | Tepoxalin Solubility ([3]; Surfactants: Tween 40, aqueous 2%): 0.066% | Tepoxalin Solubility ([3]; Surfactants: Tween 60, aqueous 2%): 0.079% | Tepoxalin Solubility ([3]; Surfactants: Tween 80, aqueous 1%): 0.030% | Tepoxalin Solubility ([3]; Surfactants: Tween 80, aqueous 2%): 0.089% | Tepoxalin Solubility ([3]; Surfactants: Tween 80, aqueous 3%): 0.099% | Tepoxalin Solubility ([3]; Surfactants: Tween 80, aqueous 6%): 0.120% | Maximum tepoxalin solubility for castor oil ([3]; castor oil): 1.6% | tepoxalin content ([3]; microemulsion using 1% castor oil and 2% of a Tween (polysorbate)): greater than 0.1% | drug in the emulsion that resides in the interface ([3]; of the 0.15% drug in the emulsion, 1% castor oil dispersed): 0.134%
